Consider 26 molecules from patent US20250382280A1, “PYRAZOLE DERIVATIVES FOR THE INHIBITION OF PHAGOCYTOSIS” (Canadian Blood Services, priority 2022, published 2025).

Like-named read-outs stand apart in the source and are kept apart here.

Data set [1] relates to phagocytosis of anti-D-opsonized Rh(D+) red cells by monocytes. The experiment in a line: monocyte monolayer assay (MMA), in vitro phagocytosis assay. The class given is cell-based, human. Also on record: key to Phagocytic index (PI): number of phagocytosed RBCs per 100 monocytes. The conditions noted are these: for Phagocytic index (PI): PI = (# of phagocytic red blood cells)/(300 monocytes) * 100; for IC50: 0.5-100 μM, read-out: IC50 for inhibition of phagocytosis. Here is the method:
The MMA to screen compounds for their ability to inhibit phagocytosis was performed as previously described (Purohit, M. K. et al., Bioorg. Med. Chem. Lett. 2013; 23:2324-7; and Purohit, M. K. et al., Bioorg. Med. Chem. 2014; 22:2739-52.). Briefly, Mononuclear cells (PBMCs) were layered onto chamber slides and monocytes purified by adherence after 1 hr at 37° C. with 5% CO2. Drugs were solubilized in 100% DMSO and then diluted in Roswell Park Memorial Institute (RPMI) to the final concentration of 5 μM, as previously reported (8,9). Corresponding dimethyl sulfoxide (DMSO) volumes in RPMI medium were used as a control. After one hour, indicator Rh-positive red cells opsonized with anti-RhD were added to the chamber slides and then further incubated for 2 hours before fixing and counting phagocytosed red blood cells (RBCs) using phase-contrast microscopy. As a positive control for inhibition, Intravenous immunoglobulin (IVIg) was used, known to inhibit phagocytosis due to blocking of FcγRs. The phagocytosis index (PI) was determined as the number of phagocytosed RBCs in 100 monocytes. The percent inhibition of phagocytosis was determined by comparing the PI in each treated sample to the PI in the untreated sample, which was determined by normalizing the PI concentration in each treated sample (phagocytosis of opsonized RBCs with vehicle only, representing 100 percent phagocytosis.
Concentrations included 100 μM, 50 μM, 25 μM, 10 μM, 5 μM, 2.5 μM, 1 μM, and 0.5 μM.
The 80 selected pyrazole core compounds were screened using a concentration of 5 μM in the in vitro phagocytosis assay, referred to as the monocyte monolayer assay (MMA). Compounds were compared to a standard intravenous immunoglobulin (IVIg) at a concentration of 1 mg/mL.

In data set [2] the test system is PBMC, HEPG2, and HEK-293. Kind of data set: LDH assay at higher concentrations (up to 250 μM). It counts as cell-based. The following applies: PBMCs, HEPG2, HEK293. On the procedure:
(§1) Cell lines (HepG2, liver-derived, HB-8065™; HEK293, kidney-derived cell line, CRL-1573™) were purchased from the ATCC. Both cell lines were cultured in Eagle's Minimum Essential Medium supplemented with 10% fetal calf serum.
(§2) To further determine the potential for toxicity of compounds KB-151 and KB-208, additional toxicity studies were done using higher concentrations, up to 250 μM of each compound, using LDH and MTT (FIGS. 4A-4D), and an apoptosis assay (Annexin V/PI) (FIGS. 5A-5C).

Data set [3] relates to PBMC, HEPG2, and HEK-293. Kind of data set: MTT assay at higher concentrations (up to 250 μM). The class given is cell-based, human. The conditions noted are these: PBMCs, HEPG2, HEK293. On the procedure: as §1, §2
Data set [4] has as its system PBMC, HEPG2, and HEK-293. Kind of data set: apoptosis assay (Annexin V/PI). The class given is cell-based, human. The conditions noted are these: 250 μM, 1 hour; PBMCs, HEPG2, HEK293. On the procedure:
PBMC, HEPG2, and HEK-293 cells were treated for 1 hour with the compound KB-151 or the compound KB-208 at a 250 μM concentration. 100 μM thimerosal was used as a positive control for viability (diluted in RPMI). Staining with Annexin V and PI was performed according to the manufacturer's procedure for the Annexin-V-FLUOS Staining Kit (Sigma) and samples were run through an SP6800 Spectral Cytometer.
as §2

For data set [5], the system named is attachment of antibody-opsonized RBCs to FcγRs on monocytes. Kind of data set: room temperature RBC rosette assay (binding of anti-D opsonized RBCs to monocytes). It counts as cell-based. The following applies: 100 μM. From the text: Fluorescent dye-labelled RBCs opsonized with anti-D were used to study the mechanism of phagocytosis inhibition using a room temperature assay to look for RBC rosettes (attachment of antibody-opsonized RBCs' to FcγRs) in the presence of monocytes. IVIg was used as the positive control and no treatment as the negative control. In the negative control, monocytes bound to the RBC and initiated phagocytosis (FIGS. 11A and 11E).

Data set [6] concerns FcγRI (CD64), FcγRII (CD32), and FcγRIII (CD16). Kind of data set: FcγR expression on monocytes with monoclonal antibodies. It counts as cell-based. The following applies: monocytes untreated or treated. Here is the method:
Due to observing similar results as IVIG, the binding of KB-208 and KB-151 to FcγR was evaluated to determine the attachment between KB-208 or KB-151 and FcγR. Three monoclonal antibodies each specific for FcγRI (CD64), FcγRII (CD32), and FcγRIII (CD16) were used to test the resulting expression of FcγRI, FcγRII and FcγRIII.

The next data set deals with HSP27. Kind of data set: signal transduction study, phosphorylated HSP27 level. The class given is cell-based. The conditions noted are these: no RBC, un-opsonized RBC. From the text:
(§3) The mechanism of action of KB-208 and KB-151 was investigated further to evaluate the effects on signal transduction. Many kinases were studied including Akt1/2/3 (T308), Akt1/2/3 (S473), CREB, EGF R1 eNOS, ERK1/2, Chk-2, c-Jun, Fgr, GSK-3a/p, GSK-3p, HSP27, p53 (S15), p53 (S46), p53 (S392), JNK 1/2/3, Lck, Lyn, MSK1/2, p70 S6 kinase (T389), p70 S6 kinase (T421/S424), PRAS40, p38a, PDGF RP, PLC-γ1, Src, PYK2, RSK1/2, RSK1/2/3, STAT2, STAT5a/b, WNK1, Yes, STAT1, STAT3 (Y705), STAT3 (S727), β-catenin, STAT6, and HSP60. […] It was then confirmed that KB-208 and KB-151 activate PP2A (in other words they increase its phosphatase activity) (FIG. 14). PP2A is a serine phosphatase that dephosphorylates HSP27. Deregulation of HSP27 also occurs in diseases other than immune cytopenias for example prostate cancer, colorectal cancer, and breast cancer.

The next data set deals with PP2A. The experiment in a line: PP2A phosphatase activity. It counts as biochemical.
Excerpt: as §3

The mark [7] stands for this setting: Homo sapiens, Monocyte, dose-inhibitory response.
The mark [8] stands for this setting: Homo sapiens, Monocyte, 5 μM compound, screening of the 80 compounds, read-out: Average inhibition (% ± standard deviation).
Setting [9] is: Homo sapiens, Monocyte, 5 μM, anti-D-opsonized Rh(D+) red cells, read-out: Inhibition percentage.

In the case of `COC(=O)CC1CCN(C(=O)c2cc(-c3cccs3)nn2-c2ccccc2)CC1` [KB-208], the “Phagocytic index (PI)” value in data set [1] (5 μM) is given as 7. Moreover, the IC50 (commonly the concentration needed to halve the response being measured) came out at 4.21 ± 1.24 µM in data set [1] (setting [7]) and 4 µM in data set [1] (dose-inhibitory response). The values for the inhibition at 5 µM in data set [1] (setting [8]) and in data set [1] (setting [9]) were 81 ± 3.43% and 81%, respectively. Further, the EC50 (usually the concentration needed to bring the measured effect to its halfway point) in data set [1] (setting [7]) stood at 5 ± 0.2 µM. Also, the “effect on IVIg dose-response curve (cooperation/synergy with IVIg)” value in data set [1] (compound added at its IC50 concentration to each IVIg concentration) is “no effect”. The “toxicity by LDH” value in the data set with PBMC, HEPG2, and HEK-293 [2] was “low to no toxicity”. In addition, in the data set with PBMC, HEPG2, and HEK-293 [3], the “toxicity by MTT” value was “low to no toxicity”. For the same molecule, the “toxicity by apoptosis assay (Annexin V/PI)” value in the data set on PBMC, HEPG2, and HEK-293 [4] is listed as “low to no toxicity”. Also, the “binding of monocytes to anti-D opsonized RBCs and phagocytosis” value in data set [5] was “inhibit the binding and inhibit phagocytosis similarly to IVIg”. Further, the “binding to Fcγ receptors (FcγRI, FcγRII, FcγRIII expression on monocytes)” value in data set [6] was “independent of binding the three tested Fcγ receptors”. In addition, the “effect on HSP27 phosphorylation” value in the data set on HSP27 is given as “dephosphorylate HSP27”. In the data set with PP2A, the PP2A phosphatase activity entry was “activate PP2A”. For the molecule `Cc1nn(C)c(C)c1-c1cc(C(=O)O)[nH]n1` [KB-189], the “Phagocytic index (PI)” value in data set [1] (5 μM) worked out at 30. For the same molecule, the inhibition (in general, the relative decrease from the control value, in per cent) at 5 µM in data set [1] (setting [8]) stood at 52 ± 4.75%; in data set [1] (setting [9]), 52%. Take `COc1cccc(-c2cc(C(=O)Nc3cc(C)nn3-c3ccccc3)on2)c1` [KB-195]: in data set [1] (setting [8]), the inhibition at 5 µM turned out to be 25 ± 6.36%.

Consider `CNC(=O)c1cc(-c2cccs2)[nH]n1` [KB-202], for which, in data set [1] (setting [8]), the inhibition at 5 µM is 33 ± 2.31%.

Regarding `Cc1coc(C)c1C1=NN(S(C)(=O)=O)C(c2cccs2)C1` (stereo not drawn) [KB-175], the “Phagocytic index (PI)” value in data set [1] (5 μM) is given as 15. Besides, the figures for the inhibition at 5 µM in data set [1] (setting [8]) and in data set [1] (setting [9]) were 50 ± 1.45% and 50%, respectively. With `CCc1cccc(NS(=O)(=O)c2cnn(CC)c2C)c1` [KB-177], the inhibition at 5 µM in data set [1] (setting [8]) worked out at 4 ± 9.76%.

`Nc1c(C(=O)O)cnn1-c1ccc(F)cc1F` [KB-209]: in data set [1] (5 μM), the “Phagocytic index (PI)” value is on record as 18. Also, the inhibition at 5 µM worked out at 50 ± 1.02% in data set [1] (setting [8]) and 50% in data set [1] (setting [9]).

`CC(=O)N1N=C(c2cccs2)CC1c1ccccc1C` (stereo not drawn) [KB-161]: in data set [1] (setting [8]), the inhibition at 5 µM was 7 ± 8.43%.

For the molecule `CN(C)C(=O)c1cn(-c2ccccc2)nc1-c1ccccc1` [KB-132], the inhibition at 5 µM in data set [1] (setting [8]) was -9 ± 3.47%. Still for that read-out and setting: under `CSc1nc2ccc(S(=O)(=O)Nc3c(C)n(C)n(-c4ccccc4)c3=O)cc2s1` [KB-170] stands -13 ± 4.31%.

Take `COc1ccccc1-n1nc(C(C)=O)c(C(C)=O)c1C` [KB-187]: the inhibition at 5 µM in data set [1] (setting [8]) was -16 ± 9.33%.

As to `CN(C)CCNC(=O)c1cc(-c2ccc(Cl)cc2)nn1-c1ccccc1` [KB-201], the inhibition at 5 µM in data set [1] (setting [8]) was 0%.

With `Cc1nn(C(=O)N(C)C)c(C)c1CN1C(=O)c2ccccc2C1=O` [KB-174], in data set [1] (setting [8]), the inhibition at 5 µM came out at 39 ± 9.53%.

With `COC(=O)N1N=C(C2CCCCC2)CC1(O)C(F)(F)F` (stereo not drawn) [KB-158], in data set [1] (setting [8]), the inhibition at 5 µM is 0%. Turning to `Cc1nn(-c2ccc3nnc(C)n3n2)c2c1C(c1cccs1)CC(=O)N2` (stereo not drawn) [KB-190], the “Phagocytic index (PI)” value in data set [1] (5 μM) was 27. The inhibition at 5 µM came to 56 ± 1.24% in data set [1] (setting [8]) and 56% in data set [1] (setting [9]). For the molecule `Cc1nn(-c2ccccc2)c2sc(C(=O)NCCO)cc12` [KB-136], the inhibition at 5 µM in data set [1] (setting [8]) was -4 ± 1.82%. On the same count and under the same terms, under `COc1cc(S(=O)(=O)n2cccn2)c(OC)cc1Cl` [KB-176] stands -10 ± 7.06%. In the case of `CC(C)c1cc(C(=O)Nc2nnc(C3CCCO3)s2)n(-c2ccccc2)n1` (stereo not drawn) [KB-206], the “Phagocytic index (PI)” value in data set [1] (5 μM) was determined as 18. The inhibition at 5 µM in data set [1] (setting [8]) turned out to be 50 ± 5.46%; in data set [1] (setting [9]), 50%. As to `CCn1nccc1C1CCCN1S(=O)(=O)c1cc(C)ccc1C` (stereo not drawn) [KB-198a], in data set [1] (setting [7]), the IC50 came out at 227 µM.

Regarding `N#CCCn1cc(C(N)=O)c(-c2cccc(Cl)c2)n1` [KB-164], the inhibition at 5 µM in data set [1] (setting [8]) was -3 ± 9.7%.

Consider `Cn1ccc(C(=O)Nc2ccc3c(c2)OCCO3)n1` [KB-182], for which the “Phagocytic index (PI)” value in data set [1] (5 μM) is given as 28. Besides, the inhibition at 5 µM in data set [1] (setting [8]) was 55 ± 3.65%; in data set [1] (setting [9]), 55%. In the case of `COc1ccccc1-c1cc(C(=O)Nc2c(C)n(C)n(-c3ccccc3)c2=O)no1` [KB-200], the inhibition at 5 µM in data set [1] (setting [8]) is 31 ± 1.84%.

Consider `COCc1nnc(NC(=O)c2cnn(C)c2-n2cccc2)s1` [KB-207], for which the inhibition at 5 µM in data set [1] (setting [8]) was determined as 14 ± 1.86%. As for `COc1ccc(-c2nc(-n3c(C)c(C(C)=O)c(C(C)=O)c3C)sc2C)cc1OC` [KB-152], the inhibition at 5 µM in data set [1] (setting [8]) stood at 2 ± 8.84%. The same measure, in the same setting: then `COc1ccc(NC(=O)c2cn(CCC#N)nc2-c2cccs2)cc1` [KB-166], with 17 ± 3.91%; and `Cc1cc(=O)n(CCN2CCOCC2)c2c1c(C)nn2-c1ccccc1` [KB-183], with -28 ± 9.96%.
